# In patent US20210269859A1, “PATHOGEN AND ANT[…]” (priority 2014, published 2021):
# Where two headings read alike, the source gives them in different places.
# Tests used:
# Type in all cases: cell-based
# [1] = system: kanamycin resistant E. coli K12 MG1655 strain; details: 10 μl
# Description: (§1) A single E. coli bacterial colony (E. coli K12 MG1655) known to be resistant to kanamycin and a single E. coli bacterial colony (E. coli K12 MG1655) known to be resistant to carbenicillin were separately cultured in LB media for 12-15 hrs until the bacterial cells were in mid-log phase (about 10^8 cells/nil). The culture was then serial diluted to 5×10^2, 5×10^3, 5×10^4, and 5×10^5 cells in LB media containing either 50 μg/ml kanamycin or 100 μg/ml carbenicillin. Resazurin was added to each dilution at a final concentration of 20, 40, or 80 μM in a total reaction volume of 100 μl. Each diluted culture was cultured at 37° C. and fluorescence was measured at wavelength 590 nm at 0, 1, 2, 3, 4, 5, and 6 hrs from the start of culture in the presence of the antibiotic.
# The resazurin reduction method was repeated using the kanamycin resistant strain but in a 10 μl total reaction volume and with final cell concentrations of 5×10^1, 5×10^2, 5×10^3, and 5×10^4 cells per reaction. The same final resazurin concentrations (20, 40, or 80 μM), kanamycin concentration, and carbenicillin concentration were used as above. Fluorescence was measured at wavelength 590 nm at 0, 1, 2, 3, 4, 5, 6, and 7 hrs from the start of culture in the presence of the antibiotic.
# [2] = system: kanamycin resistant E. coli K12 MG1655 strain; details: 100 μl
# Description: as §1
# [3] = system: carbenicillin resistant E. coli K12 MG1655 strain; assay: Resazurin reduction method, 100 μl total reaction volume
# Description: as §1
# [4] = 50 μg/ml kanamycin or 100 μg/ml carbenicillin, 5×10^2 to 5×10^5 cells, resazurin 20, 40 or 80 μM, 37° C., 0-6 hrs
# [5] = higher initial cell concentrations (5×10^3, 5×10^4, 5×10^5 cells)
# [6] = lower initial cell concentration (5×10^2 cells)
SMILES,"growth of the strain in the presence of the antibiotic (fluorescence at 590 nm) ([1]; same kanamycin and carbenicillin concentrations, 5×10^1 to 5×10^4 cells per reaction, resazurin 20, 40 or 80 μM, 0-7 hrs)","growth of the strain in the presence of the antibiotic (fluorescence at 590 nm) [2, 4]","growth of the strain in the presence of the antibiotic (fluorescence at 590 nm) [3, 4]","time after initiating the culture at which resistance to the antibiotic could be detected [3, 5]","time after initiating the culture at which resistance to the antibiotic began showing [3, 6]","time after initiating the culture at which resistance to the antibiotic could be detected ([1]; higher initial cell concentrations (5×10^2, 5×10^3, 5×10^4 cells))",time after initiating the culture at which resistance to the antibiotic began showing ([1]; lower initial cell concentration (5×10^1 cells)),"time after initiating the culture at which resistance to the antibiotic could be detected [2, 5]","time after initiating the culture at which resistance to the antibiotic began showing [2, 6]"
CC1(C)S[C@@H]2[C@H](NC(=O)C(C(=O)O)c3ccccc3)C(=O)N2[C@H]1C(=O)O (stereo partly drawn) [carbenicillin],slow or no growth,slow or no growth,growth,1 to 5 h,about 6 hrs,–,–,–,–
NC[C@H]1O[C@H](O[C@H]2[C@H](O)[C@@H](O[C@H]3O[C@H](CO)[C@@H](O)[C@H](N)[C@H]3O)[C@H](N)C[C@@H]2N)[C@H](O)[C@@H](O)[C@@H]1O [kanamycin],–,–,–,–,–,1 to 6 h,about 7 hrs,1 to 5 h,about 6 hrs
